The results in this text go back to a melting point compilation (Tetko et al.; mined from patent text by program, amines drawn as free bases though some values may be those of a salt).

Molecules are shown by their SMILES. Some results are limits rather than exact numbers.

As usually defined, the melting point is the temperature of the solid-liquid transition. In turn, `COc1cc(OCCNC(=O)C2Cc3ccccc3N2S(=O)(=O)c2ccc(-c3cc(C(F)(F)F)ccc3Cl)cc2)ccc1C(=O)O` (stereo not drawn) came in with a melting point of 98 to 104 °C.

The compound `Cc1nc2[nH]c(=O)[nH]c2cc1-c1ccc(N)cc1` yielded a melting point of 277 to 283 °C.

Turning to `Cc1c(C(=O)O)oc2ccc(Br)c(OC(C)C)c12`, the melting point was 182 to 184 °C.

In turn, `COCCON1C(=O)C(c2c(C)cc(C)cc2C)C(=O)C12CCN(N(C)C)CC2` (stereo not drawn) yielded a melting point of 108 °C.

In the case of `OC1c2ccc(F)cc2SC1Cn1ccnc1` (stereo not drawn), the melting point lay within 165 to 166 °C.

In the case of `Cn1c2ccc(F)cc2c(=O)n2nc(-c3nnn[nH]3)cc12`, the melting point lay within 350 to 360 °C.

Compound `N#Cc1ccc(NS(=O)(=O)c2ccc(Cl)cc2)c([N+](=O)[O-])c1` had a melting point of 193 to 195 °C.

For `O=C(Cc1c(-c2ccccc2)c2cc3c(cc2oc1=O)C(=O)OC3)Nc1ccc(F)cc1C(F)(F)F`, the melting point lay within 253 to 254 °C.

With `CC(=O)Oc1nc2c(N)ncnc2n1Cc1ccccc1`, the melting point lay in the range of 189 to 191 °C.

`COC(=O)C1=C(COCC(C)n2c(C)nc(C)c2C)Nc2c(c(=O)n(C)c(=O)n2C)C1c1ccccc1Cl` (stereo not drawn): the melting point lay within 180 to 182 °C.

For `O=S1NC(Cc2coc3ccc(Cl)cc23)=NO1` (stereo not drawn), the melting point came out at 140 °C.

On to `CNC(=NC#N)NCCSCc1csc(NC(=N)N)n1`, for which the melting point was in the range of 159 to 161 °C.

For the compound `CSC1=N/C(=C\c2c[nH]c3ncc(Cl)cc23)C(=O)N1`, the melting point was greater than 410 °C.

As for `O=C(Cc1cccc(C(F)(F)F)c1)c1c(O)c2cccnc2n(-c2ccccc2)c1=O`, the melting point was 201 to 203 °C.

`NS(=O)(=O)c1cc2c(s1)SCCNC2=O` displayed a melting point greater than 270 °C.

In turn, `O=C(C=Cc1cccnc1)NCCCCN1CCCN(C(c2ccccc2)c2ccccc2)CC1` showed a melting point of 149 to 151 °C.

Take `CN(CCCC(N)=O)Cc1ccc(Cl)cc1`: the melting point lay in the range of 62 to 64 °C.

`ClC(Cl)(Cl)C1OCc2ccccc2O1` (stereo not drawn) gave a melting point of 167 to 169 °C.

`O=c1[nH]c(=O)c2ccsc2[nH]1` registered a melting point greater than 300 °C.

`COc1c(F)cc2c(O)c(C(=O)NCc3ccc(Cl)cc3)cnc2c1OC` showed a melting point of 228 to 229 °C.

For the compound `Cc1oc(-c2ccc(C(F)(F)F)cc2)nc1COc1ccc(/C=C/Cn2oc(=O)[nH]c2=O)cc1`, the melting point fell in the range of 128 to 130 °C.

`Fc1cccc(COc2ccc(I)cc2)c1` showed a melting point of 48 °C.

Compound `COc1cc2c(cc1[N+](=O)[O-])-c1c(-c3cccs3)c3c(n1CC2)C(=O)N(C(C)(C)C)CCC3` returned a melting point of 279 to 280 °C.

In the case of `CC(C)(C)OC(=O)N1CCNC(=O)C1Cc1ccccc1` (stereo not drawn), the melting point fell in the range of 152 to 154 °C.

In turn, `COC(=O)NNC(=S)Cc1ccc(OC)cc1` returned a melting point of 94.5 to 95 °C.

For the compound `O=C1N=NC(CO)=C1c1ccccc1`, the melting point was in the range of 165 to 168 °C.

Compound `CCC1OC(Cn2cncn2)(c2ccc(Cl)cc2Cl)OC1C` (stereo not drawn) displayed a melting point of 109 to 113 °C.

Consider `CCCCCC(CC(=O)Nc1cc(C(=O)O)ccc1C(C)(C)C)c1ccc(C(=O)CCC)cc1OC` (stereo not drawn), for which the melting point is 136 to 138 °C.

Compound `COc1ccccc1C(=O)N(C)Cc1cccc(-c2ccc(CC3SC(=O)NC3=O)cc2)c1` (stereo not drawn) displayed a melting point of 96 °C.

Consider `Cc1[nH]cnc1CN1CCc2c(c3cccc(F)c3n2C)C1`, for which the melting point lay within 188 to 190 °C.

Compound `Cc1cc(SCc2ccc(-c3ccc(C(F)(F)F)cc3)cc2)c(Cl)cc1OCC(=O)O` registered a melting point of 161 to 162 °C.

The compound `COc1cc(-c2cnc3[nH]cc(C(=O)N4CCCC4)c3n2)cc(OC)c1OC` had a melting point of 210 to 212 °C.

Compound `CN1CC(c2ccno2)CC2c3cccc4[nH]cc(c34)CC21` (stereo not drawn) gave a melting point of 132 to 134 °C.

`CC(=O)c1c(C)c2cnc(Nc3ccc(N4CCNCC4)nc3)nc2n(C2CCCC2)c1=O` registered a melting point of 125 °C.

Take `C=CCC1(CC=C)c2cc(Br)ccc2-c2ccc(Br)cc21`: the melting point was 149 to 150 °C.

On to `CCn1cc(C(=O)NCCc2ccncc2)c(=O)c2cc(F)cc(C)c21`, for which the melting point lay in the range of 243 to 245 °C.

As to `NC(=S)c1ccc(Br)cc1`, the melting point fell in the range of 142 to 144 °C.

Regarding `COc1ccc2[nH]cc(-c3cc4nccnc4[nH]3)c2c1`, the melting point lay in the range of 268 to 271 °C.

Consider `CC(=O)OC1CSC(Oc2ccc(-c3ccc(Cl)nc3)nc2)C(OC(C)=O)C1OC(C)=O` (stereo not drawn), for which the melting point came to 204 °C.

In the case of `COC(=O)c1nc(C)c(-c2nccs2)s1`, the melting point is 129 to 130 °C.

In the case of `CC1(C2CCCC2)Cc2cc(OCCCCC(=O)O)c(Cl)c(Cl)c2C1=O` (stereo not drawn), the melting point lay in the range of 106 to 108 °C.

`CCOC(=O)C(=CNN(C)C=O)C(=O)c1cc(F)c(F)c(F)c1F` yielded a melting point of 189 °C.

In turn, `CCCCCSc1ccc(CN(O)C(N)=S)s1` came in with a melting point of 112 to 114 °C.

Turning to `Nc1nc(C#Cc2ccccc2)nc2nc(-c3ccco3)nn12`, the melting point was greater than 280 °C.

`C=C(C)CN1Cc2cscc2Nc2ccccc21` gave a melting point of 83 to 84 °C.

Consider `CC(=O)Nc1cc(C(=O)O)cc(C(F)(F)F)c1`, for which the melting point fell in the range of 194 to 220 °C.

The compound `COc1ccccc1CN1CCC(=O)C(C2c3ccccc3Oc3ccccc32)C1` (stereo not drawn) had a melting point of 96 to 97 °C.

Consider `O=S(=O)(NCC1CCN(C[C@H]2COc3ccc(Cl)cc3O2)CC1)c1ccc(Cl)cc1`, for which the melting point fell in the range of 152 to 154 °C.

Compound `CCc1cc2c(cc1Cl)C=C(C(=O)O)C(C(F)(F)F)O2` (stereo not drawn) had a melting point of 171 to 172 °C.

In the case of `COc1ccc(S(=O)(=O)N(CCO)c2ccc(Cl)cc2C(O)c2ccccc2Cl)cc1OC` (stereo not drawn), the melting point was 86.2 °C.

Consider `CCOC(=O)CC(CC(=O)Nc1ccc(Cl)c(C=C(Cl)C(=O)OCC)c1)C(F)(F)F` (stereo not drawn), for which the melting point was 115 to 117 °C.

For the compound `CCOC(=O)c1c(NCCC(=O)c2ccccc2)c2c(Cl)cc(Cl)cc2n1C(=O)OC(C)(C)C`, the melting point was in the range of 130 to 131 °C.

For the compound `O=C1CCCC2=C1C(c1cccc(Br)c1)C1=C(CCCC1)N2` (stereo not drawn), the melting point was 258 to 260 °C.

`Cc1cc(-c2coc3c(C(C)(C)C)cc(C)cc23)c(O)c(C(C)(C)C)c1` had a melting point of 132 to 134 °C.

Compound `CS(=O)(=O)On1c(=O)c2cc3c(=O)n(OS(C)(=O)=O)c(=O)c3cc2c1=O` showed a melting point greater than 300 °C.

With `CC(=O)NC[C@H]1CN(c2cc(F)c(N3CCC(n4nnnc4CS(C)(=O)=O)CC3)c(F)c2)C(=O)O1`, the melting point is 192 °C.

`Cc1cccc(CC(=O)c2ccnc(Br)c2)n1` yielded a melting point of 126 °C.

In turn, `CCC(O)(c1ccc(OCc2cccc(C)n2)cc1)c1ccccc1C(F)(F)F` (stereo not drawn) displayed a melting point of 128 to 129 °C.

With `CC(=O)OCC1OC(n2cnc3c(N)ncnc32)CC1O` (stereo not drawn), the melting point was 150 to 152 °C.

The compound `CC(=NO)c1ccc(N2CC(CO)OC2=O)cc1` (stereo not drawn) came in with a melting point of 190 °C.

The compound `O=c1cc(-c2ccc(CO)cc2)oc2ccc(O)cc12` showed a melting point of 262 to 265 °C.

In the case of `COc1cc(-n2c(-c3cc(-c4cnc5[nH]ccc5c4)ccn3)cn(C)c2=O)ccc1Cl`, the melting point came to 223 °C.

Compound `Cc1nnc2n1-c1ccc(NC(=O)NCCO)cc1C(c1ccccc1F)=NC2` gave a melting point of 228 to 230 °C.

Turning to `CCCn1c(COC)nc2c(N)nc3ccc(OCC4CCCN(C)C4)cc3c21` (stereo not drawn), the melting point was 194 to 196 °C.

With `COc1ccc(/C=C/c2cc(Cl)cc(Cl)c2)cc1`, the melting point fell in the range of 62 to 64 °C.

Turning to `Cc1cc(-n2ccnc2)c2cccc(OCc3c(Cl)ccc(S(=O)(=O)N4CCC[C@H]4C(=O)NCC4CCN(CCCO)CC4)c3Cl)c2n1`, the melting point amounted to 90 °C.

For the compound `CC(C)(C)c1cc(/C=C(\C#N)C(=O)NCCCc2ccccc2)cc(C(C)(C)C)c1O`, the melting point was determined as 209 °C.

Compound `CCOC(=O)N(c1ccc(Cl)cc1)c1ccccc1N` showed a melting point of 112 to 115 °C.

Regarding `CC(C)(C)c1cc(CCc2nsc(=O)o2)cc(C(C)(C)C)c1O`, the melting point is 82 to 86 °C.

With `COC(=O)c1cccnc1Oc1ccc(F)cc1`, the melting point lay within 97 to 99 °C.

In turn, `COc1ccc2c(ccc3c4ccc(OC)cc4c(=O)n(-c4ccc(OCCN5CCCCC5)cc4)c23)c1` displayed a melting point of 176 °C.

For the compound `COc1c(C(=O)OCc2ccccc2)nc(-c2ccc(Cl)c(OC)c2F)c(F)c1N`, the melting point is 119 °C.

On to `Cn1c(COc2ccc(CC3SC(=O)NC3=O)cc2)nc2ccc(Oc3ccc(NC(=O)C4CCCCC4)cc3)cc21` (stereo not drawn), for which the melting point was in the range of 182 to 184 °C.

In turn, `CCOC(=O)c1ncn2c1C(C)N=C(c1ccccn1)c1cc(Br)ccc1-2` (stereo not drawn) showed a melting point of 193 to 195 °C.

For the compound `CCc1ccc(-c2nc(COc3ccc(CCCn4ccnc4)cc3)co2)s1`, the melting point lay within 57 to 58 °C.

The compound `CN(C)C=CC(=O)c1cccc(NC(=O)C2CCC2)c1` came in with a melting point of 155 to 157 °C.

The compound `COC(=O)c1ccc(Cn2c(=O)c3cc(C(=O)NCc4ccc(OC)cc4)sc3n(C)c2=O)cc1OC` came in with a melting point of 201 to 203 °C.

In turn, `COC(=O)COc1ccc(C(O)CNCc2ccc(C(=O)OC)cc2)cc1` (stereo not drawn) showed a melting point of 97 to 100 °C.

In the case of `O=C(O)COc1c(-c2cccc(Cl)c2)cc(C(=O)NCCCCCCCCc2ccccc2)cc1-c1cccc(Cl)c1`, the melting point fell in the range of 165 to 167 °C.

Turning to `CCCNc1ccc(NCc2ccc(NCCC)nc2)nc1`, the melting point was 129 to 130 °C.

In turn, `CC(=O)Nc1ccc2c(c1)[nH]c(=O)c(=O)n2CP(=O)(O)O` came in with a melting point of 120 °C.

The compound `COc1cc2cc3c(Cl)ncnc3cc2cc1OCCN1CCOCC1` displayed a melting point of 166 to 168 °C.

`CCN(CC)C(=O)c1ccc(-c2nc(=O)c3ccccc3s2)nc1` showed a melting point of 193 °C.

Compound `COc1ccc2c(c1)C(O)C(Cc1ccc(OC)c(OC3CC4CCC3C4)c1)CO2` (stereo not drawn) displayed a melting point of 115 to 117 °C.

For the compound `CC(C)(C)C(=O)OCN(c1ccc(CN2CCN(Cc3ccccc3)C(=O)C2=O)cc1)c1ncccn1`, the melting point is 144 to 146 °C.

`CCc1ccc(-c2ccc(-c3ccc(C)s3)c(F)c2)cc1` registered a melting point of 102 °C.

For the compound `CCC(CC)CC(C)(NC(CO)c1ccccc1)C(=O)O` (stereo not drawn), the melting point came out at 149 °C.

For the compound `O=C(NCC1CCCCC1)c1c(Cl)ccc2nc(N3CC(NCCO)C3)ccc12`, the melting point lay in the range of 150 to 151 °C.
